Results from paper PMC3321071 (Bioorganic & medicinal chemistry letters, 2012).

Tested on: gp41-mediated cell–cell fusion
Test: cell–cell fusion
Format: cell-based, HIV-1
Conditions: read-out: IC50 in CCF assay

Substance | IC50 [µM]
H2N-Asn-[Trp]-Trp-OH | 6 to 8
H2N-Trp-[Trp]-Leu-OH | 5
H2N-TyrMe-[Trp]-Trp-OH | 6 to 8
